# In ChEMBL document CHEMBL1681651, “A broad spectrum anticancer nucleoside with selective toxicity against human colon cells in vitro” (2011):
# Experiments:
# Format in all cases: functional
# RXF 393 = test: Growth inhibition of human RXF393 cells assessed as cell growth at 1 uM after 48 hrs by SRB assay; settings: RXF 393, 48 h, read-out: Activity
# HCC 2998 [1] = test: Growth inhibition of human HCC2998 cells assessed as cell growth at 10 uM after 48 hrs by SRB assay; settings: HCC 2998, 48 h, read-out: Activity
# CCRF-CEM = test: Growth inhibition of human CCRF-CEM cells after 48 hrs by […] growth inhibition assay
# EKVX = test: Growth inhibition of human EKVX cells after 48 hrs by […] growth inhibition assay
# HCT-15 [2] = test: Growth inhibition of human HCT15 cells after 48 hrs by […] growth inhibition assay; settings: HCT-15, 48 h
# Malme-3M [3] = test: Growth inhibition of human MALME-3M cells after 48 hrs by […] growth inhibition assay
# UACC-257 [4] = test: Growth inhibition of human UACC257 cells after 48 hrs by […] growth inhibition assay; settings: UACC-257, 48 h
# SF-295 [5] = test: Growth inhibition of human SF295 cells after 48 hrs by […] growth inhibition assay; settings: SF-295, 48 h
# A498 = test: Growth inhibition of human A498 cells after 48 hrs by […] growth inhibition assay; settings: A498, 48 h
# [6] = Growth inhibition of human […] cells assessed as cell growth at 0.1 uM after 48 hrs by SRB assay; settings: read-out: Activity
# A549 = test: Growth inhibition of human A549 cells assessed as cell growth at 0.1 uM after 48 hrs by SRB assay; settings: A549, 48 h, read-out: Activity
# HOP-92 = test: Growth inhibition of human HOP92 cells assessed as cell growth at 0.1 uM after 48 hrs by SRB assay; settings: HOP-92, 48 h, read-out: Activity
# COLO 205 = test: Growth inhibition of human COLO205 cells assessed as cell growth at 0.1 uM after 48 hrs by SRB assay; settings: COLO 205, 48 h, read-out: Activity
# SF-539 = test: Growth inhibition of human SF539 cells assessed as cell growth at 0.1 uM after 48 hrs by SRB assay; settings: SF-539, 48 h, read-out: Activity
# SK-MEL-2 = test: Growth inhibition of human SK-MEL-2 cells assessed as cell growth at 0.1 uM after 48 hrs by SRB assay; settings: SK-MEL-2, 48 h, read-out: Activity
# OVCAR-3 = test: Growth inhibition of human OVCAR3 cells assessed as cell growth at 0.1 uM after 48 hrs by SRB assay; settings: OVCAR-3, 48 h, read-out: Activity
# SK-OV-3 = test: Growth inhibition of human SKOV3 cells assessed as cell growth at 0.1 uM after 48 hrs by SRB assay; settings: SK-OV-3, 48 h, read-out: Activity
# NCI/ADR-RES = test: Growth inhibition of human NCI/ADR-RES cells assessed as cell growth at 10 uM after 48 hrs by SRB assay; settings: read-out: Activity
# HCC 2998 [7] = test: Growth inhibition of human HCC2998 cells assessed as cell growth at 100 uM after 48 hrs by SRB assay; settings: HCC 2998, 48 h, read-out: Activity
# HCT-15 [8] = test: Growth inhibition of human HCT15 cells assessed as cell growth at 100 uM after 48 hrs by SRB assay; settings: HCT-15, 48 h, read-out: Activity
# SNB-75 = test: Growth inhibition of human SNB75 cells assessed as cell growth at 100 uM after 48 hrs by SRB assay; settings: SNB-75, 48 h, read-out: Activity
# M14 = test: Growth inhibition of human M14 cells assessed as cell growth at 100 uM after 48 hrs by SRB assay; settings: M14, 48 h, read-out: Activity
# SF-295 [9] = test: Growth inhibition of human SF295 cells assessed as cell growth at 1 mM after 48 hrs by SRB assay; settings: SF-295, 48 h, read-out: Activity
# Malme-3M [10] = test: Growth inhibition of human MALME-3M cells assessed as cell growth at 1 mM after 48 hrs by SRB assay; settings: read-out: Activity
# UACC-257 [11] = test: Growth inhibition of human UACC257 cells assessed as cell growth at 1 mM after 48 hrs by SRB assay; settings: UACC-257, 48 h, read-out: Activity
# IGROV-1 = test: Growth inhibition of human IGROV1 cells assessed as cell growth at 1 mM after 48 hrs by SRB assay; settings: IGROV-1, 48 h, read-out: Activity
# OVCAR-8 = test: Growth inhibition of human OVCAR8 cells assessed as cell growth at 1 mM after 48 hrs by SRB assay; settings: OVCAR-8, 48 h, read-out: Activity
# MDA-MB-231 = test: Growth inhibition of human MDA-MB-231 cells assessed as cell growth at 1 mM after 48 hrs by SRB assay; settings: MDA-MB-231, 48 h, read-out: Activity
# T47D = test: Growth inhibition of human T47D cells assessed as cell growth at 0.1 uM after 48 hrs by SRB assay; settings: read-out: Activity
# NCI-H23 = test: Growth inhibition of human NCI-H23 cells assessed as cell growth at 1 uM after 48 hrs by SRB assay; settings: NCI-H23, 48 h, read-out: Activity
# HCT-116 = test: Growth inhibition of human HCT116 cells assessed as cell growth at 1 uM after 48 hrs by SRB assay; settings: HCT-116, 48 h, read-out: Activity
# UACC-257 [12] = test: Growth inhibition of human UACC257 cells assessed as cell growth at 1 uM after 48 hrs by SRB assay; settings: UACC-257, 48 h, read-out: Activity
# [13] = read-out: LC50 (the source's name)
# [14] = read-out: pLC50 (the source's name) (converted)
smiles,measurement,setting,value
CCOC(=O)C[C@H]1[C@@H](O[Si](C)(C)C(C)(C)C)[C@H](n2cnc3c(NC(=O)Nc4ccccc4)ncnc32)O[C@@H]1CNC(=O)NC,growth at 1 µM,RXF 393,97%
same,growth at 10 µM,HCC 2998 [1],93%
same,GI50,CCRF-CEM; read-out: GI50,6.69 µM
same,"LC50 (lethal concentration, 50% net cell kill)",CCRF-CEM; read-out: LC50,> 100 µM
same,TGI,CCRF-CEM; read-out: TGI,88.6 µM
same,GI50,CCRF-CEM; read-out: pGI50 (converted),6.76 µM
same,"LC50 (lethal concentration, 50% net cell kill)",CCRF-CEM; read-out: pLC50 (converted),> 100 µM
same,TGI,CCRF-CEM; read-out: pTGI (converted),89.1 µM
same,GI50,EKVX; read-out: GI50,17.7 µM
same,CC50,EKVX; [13],> 100 µM
same,TGI,EKVX; read-out: TGI,> 100 µM
same,GI50,EKVX; read-out: pGI50 (converted),17.8 µM
same,CC50,EKVX; [14],> 100 µM
same,TGI,EKVX; read-out: pTGI (converted),> 100 µM
same,GI50,HCT-15 [2]; read-out: GI50,8.5 µM
same,CC50,HCT-15 [2]; [13],> 100 µM
same,TGI,HCT-15 [2]; read-out: TGI,> 100 µM
same,GI50,HCT-15 [2]; read-out: pGI50 (converted),8.51 µM
same,CC50,HCT-15 [2]; [14],> 100 µM
same,TGI,HCT-15 [2]; read-out: pTGI,> 100 µM
same,GI50,Malme-3M [3]; read-out: GI50,10.3 µM
same,LC50 (concentration killing 50% of cells),Malme-3M [3]; read-out: LC50,> 100 µM
same,TGI,Malme-3M [3]; read-out: TGI,> 100 µM
same,GI50,Malme-3M [3]; read-out: pGI50 (converted),10.2 µM
same,LC50 (concentration killing 50% of cells),Malme-3M [3]; read-out: pLC50 (converted),> 100 µM
same,TGI,Malme-3M [3]; read-out: pTGI (converted),> 100 µM
same,GI50,UACC-257 [4]; read-out: GI50,5.68 µM
same,CC50,UACC-257 [4]; [13],> 100 µM
same,TGI,UACC-257 [4]; read-out: TGI,> 100 µM
same,GI50,UACC-257 [4]; read-out: pGI50 (converted),5.62 µM
same,CC50,UACC-257 [4]; [14],> 100 µM
same,TGI,UACC-257 [4]; read-out: pTGI (converted),> 100 µM
same,GI50,SF-295 [5]; read-out: GI50,5.73 µM
same,LC50,SF-295 [5]; read-out: LC50,> 100 µM
same,TGI,SF-295 [5]; read-out: TGI,> 100 µM
same,GI50,SF-295 [5]; read-out: pGI50 (converted),5.75 µM
same,LC50,SF-295 [5]; read-out: pLC50 (converted),> 100 µM
same,TGI,SF-295 [5]; read-out: pTGI (converted),> 100 µM
same,GI50,A498; read-out: GI50,3.34 µM
same,CC50,A498; [13],> 100 µM
same,TGI,A498; read-out: TGI,17.1 µM
same,GI50,A498; read-out: pGI50 (converted),3.31 µM
same,CC50,A498; [14],> 100 µM
same,TGI,A498; read-out: pTGI (converted),17 µM
same,growth at 0.1 µM,[6],77%
same,growth at 0.1 µM,A549,102%
same,growth at 0.1 µM,HOP-92,4%
same,growth at 0.1 µM,COLO 205,102%
same,growth at 0.1 µM,SF-539,97%
same,growth at 0.1 µM,SK-MEL-2,102%
same,growth at 0.1 µM,OVCAR-3,114%
same,growth at 0.1 µM,SK-OV-3,96%
same,growth at 10 µM,NCI/ADR-RES,104%
same,growth at 100 µM,HCC 2998 [7],69%
same,growth at 100 µM,HCT-15 [8],47%
same,growth at 100 µM,SNB-75,32%
same,growth at 100 µM,M14,4%
same,growth at 1000 µM,SF-295 [9],24%
same,growth at 1000 µM,Malme-3M [10],17%
same,growth at 1000 µM,UACC-257 [11],9%
same,growth at 1000 µM,IGROV-1,-58%
same,growth at 1000 µM,OVCAR-8,-4%
same,growth at 1000 µM,MDA-MB-231,-13%
same,growth at 0.1 µM,T47D,91%
same,growth at 1 µM,NCI-H23,100%
same,growth at 1 µM,HCT-116,113%
same,growth at 1 µM,UACC-257 [12],102%
